The subject of experiment [1] is Aβ40 in conditioned medium of cells stably expressing Amyloid Precursor Protein (APP). The experiment in a line: In vitro BACE cell-based assay (HEK cell assay), Aβ40 sandwich ELISA. To be noted: IC50 range symbols, Table 1, Aβ40, 24 h incubation, read-out: HEK cell assay. How it is done: In Vitro BACE Cell-Based Assay:
The cell-based assay measures inhibition or reduction of Aβ40 in conditioned medium of test compound treated cells expressing amyloid precursor protein.
Cells stably expressing Amyloid Precursor Protein (APP) were plated at a density of 40K cells/well in 96 well plates (Costar). The cells were cultivated for 24 hours at 37° C. and 5% CO2 in DMEM supplemented with 10% FBS. The test compounds were then added to cells in 10-point dose response concentrations with the starting concentration being either 100 μM or 10 μM. The compounds were diluted from stock solutions in DMSO and the final DMSO concentration of the test compounds on cells was 0.1%. After 24 h of incubation with the test compounds the supernatant conditioned media was collected and the Aβ 40 levels were determined using a sandwich ELISA. The IC50 of the compound was calculated from the percent of control or percent inhibition of Aβ 40 as a function of the concentration of the test compound.
The sandwich ELISA to detect Aβ 40 was performed in 96 well microtiter plates, which were pre-treated with goat anti-rabbit IgG (Pierce). The capture and detecting antibody pair that were used to detect Aβ 40 from cell supernatants were affinity purified pAb40 (Biosource) and biotinylated 6E10 (Signet Labs Inc.), respectively. The optimal concentration for the pAb40 antibody was 3 μg/ml in Superblock/TBS (Pierce) that was supplemented with 0.05% Tween 20 (Sigma).
Cellular supernatants were incubated with the capture antibody for 3 h at 4° C., followed by 3 wash steps in TBS-tween (0.05%). The detecting antibody incubation was for 2 h at 4° C., again followed by the wash steps as described previously. The final readout of the ELISA is Time-Resolved Fluorescence (counts per minute) using Delfia reagents Streptavidin-Europium and Enhancement solutions (Perkin Elmer) and the Victor 2 multilabel counter (Perkin Elmer).
A general note: In an ELISA, binding on a coated surface is turned into a signal by an enzyme label.

Experiment [2] has as its target BACE 1 (Beta Secretase enzyme) (Homo sapiens, UniProt P56817). Put plainly: In vitro enzymatic BACE FRET assay. Type of experiment: biochemical. How it is done:
In Vitro Enzymatic BACE FRET (Fluorescence Resonance Energy Transfer) Assay (Enzyme Assay Data in Table 1)
The assay buffer used in this screen is 0.05 M acetate, pH 4.2, 10% DMSO final, 100 uM genapol (which is a nonionic detergent, below its Critical Micelle Concentration). […] The assay is effectively started by the addition of FRET substrate (50 nM) and the combination is incubated for one hour. The FRET assay is terminated with by addition of Tris buffer, which raises the pH to neutrality, and the fluorescence is determined. The FRET substrate is a peptide with commercially available fluorophore and quencher, on opposite sides of the BACE cleavage site.

[3] abbreviates: IC50 range symbols, Table 1, read-out: BACE 1 FRET assay.
The mark [4] stands for this setting: bound stated, read-out: IC50 value in the FRET BACE enzyme assay.

Like-named read-outs stand apart in the source and are kept apart here.

Sequence of BACE 1 (Beta Secretase enzyme) (P56817 46-501, species assumed): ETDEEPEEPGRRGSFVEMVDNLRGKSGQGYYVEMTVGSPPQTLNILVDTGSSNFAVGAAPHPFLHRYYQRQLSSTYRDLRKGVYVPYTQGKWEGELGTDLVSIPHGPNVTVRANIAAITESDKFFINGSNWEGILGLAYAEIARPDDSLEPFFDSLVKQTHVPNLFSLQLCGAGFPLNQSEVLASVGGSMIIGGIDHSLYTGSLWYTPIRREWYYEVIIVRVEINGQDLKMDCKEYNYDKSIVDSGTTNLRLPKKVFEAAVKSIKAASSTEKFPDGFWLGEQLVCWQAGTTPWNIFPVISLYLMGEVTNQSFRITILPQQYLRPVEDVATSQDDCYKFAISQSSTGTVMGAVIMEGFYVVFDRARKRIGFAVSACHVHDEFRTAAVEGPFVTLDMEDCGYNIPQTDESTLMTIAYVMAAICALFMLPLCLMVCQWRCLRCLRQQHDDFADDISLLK

For the compound `CCc1ccccc1-c1ccc2nc(N)c(CCC(=O)NCC3CCCCC3)cc2c1` [Example 49, 3-(2-amino-6-(2-ethylphenyl)quinolin-3-yl)-N-(cyclohexylmethyl)propanamide], the IC50 in experiment [1] (Homo sapiens, HEK293, 24 h) was 1000 to 5000 nM; in experiment [2] (setting [3]), less than 500 nM.
Take `CCC(Cc1cc2cc(-c3ccccc3C)ccc2nc1N)C(=O)Nc1ccccc1F` (centres unmarked) [Example 50, 2-((2-amino-6-o-tolylquinolin-3-yl)methyl)-N-(2-fluorophenyl)butanamide]: the IC50 in experiment [1] (Homo sapiens, HEK293, 24 h) was more than 5000 nM; in experiment [2] (setting [3]) it was less than 500 nM.
Turning to `Cc1ccccc1-c1ccc2nc(N)c(CC(C)C(=O)Nc3ccccc3)cc2c1` (centres unmarked) [Example 51, 3-(2-amino-6-o-tolylquinolin-3-yl)-2-methyl-N-phenylpropanamide], the IC50 was 1000 to 5000 nM in experiment [1] (Homo sapiens, HEK293, 24 h) and less than 500 nM in experiment [2] (setting [3]).
With `Cc1ccc(NC(=O)CCc2cc3cc(-c4ccccc4C)ccc3nc2N)c(F)c1` [Example 53, 3-(2-amino-6-o-tolylquinolin-3-yl)-N-(2-fluoro-4-methylphenyl)propanamide], the IC50 is 1000 to 5000 nM in experiment [1] (Homo sapiens, HEK293, 24 h) and 1000 to 5000 nM in experiment [2] (setting [3]).
With `Cc1ccccc1-c1ccc2nc(N)c(CCC(=O)NCc3ccn(C)n3)cc2c1` [Example 54, 3-(2-amino-6-o-tolylquinolin-3-yl)-N-((1-methyl-1H-pyrazol-3-yl)methyl)propanamide], the IC50 in experiment [1] (Homo sapiens, HEK293, 24 h) is more than 5000 nM; in experiment [2] (setting [3]) it was 1000 to 5000 nM.
Regarding `Cc1ccccc1-c1ccc2nc(N)c(CCC(=O)NCC3(C)COC3)cc2c1` [Example 58, 3-(2-amino-6-o-tolylquinolin-3-yl)-N-((3-methyloxetan-3-yl)methyl)propanamide], the IC50 in experiment [1] (Homo sapiens, HEK293, 24 h) is more than 5000 nM; in experiment [2] (setting [3]) it was 1000 to 5000 nM.
For `CCn1ccc(CNC(=O)CCc2cc3cc(-c4ccccc4C)ccc3nc2N)n1` [Example 59, 3-(2-amino-6-o-tolylquinolin-3-yl)-N-((1-ethyl-1H-pyrazol-3-yl)methyl)propanamide], the IC50 in experiment [1] (Homo sapiens, HEK293, 24 h) was 1000 to 5000 nM; in experiment [2] (setting [3]), less than 500 nM.
As to `CO[C@@H]1CCC[C@H]1NC(=O)CCc1cc2cc(-c3ccccc3C)ccc2nc1N` [Example 62, 3-(2-amino-6-o-tolylquinolin-3-yl)-N-((1R,2R)-2-methoxycyclopentyl)propanamide], the IC50 in experiment [1] (Homo sapiens, HEK293, 24 h) was 1000 to 5000 nM; in experiment [2] (setting [3]) it was less than 500 nM.
`Cc1ccccc1-c1ccc2nc(N)c(CCC(=O)NCc3nccs3)cc2c1` [Example 63, 3-(2-amino-6-o-tolylquinolin-3-yl)-N-(thiazol-2-ylmethyl)propanamide]: the IC50 was 1000 to 5000 nM in experiment [1] (Homo sapiens, HEK293, 24 h) and less than 500 nM in experiment [2] (setting [3]).
The like results for `Cc1ccccc1-c1ccc2nc(N)c(CC(C)C(=O)NC3CCCN(C)C3)cc2c1` (centres unmarked) [Example 64, 3-(2-amino-6-o-tolylquinolin-3-yl)-2-methyl-N-(1-methylpiperidin-3-yl)propanamide] were, in that order, less than 500 nM and less than 500 nM.
The like results for `Nc1nc2ccc(-c3ccc(F)cc3)cc2cc1CCC(=O)NCC1CCCCC1` [Example 65, 3-(2-amino-6-(4-fluorophenyl)quinolin-3-yl)-N-(cyclohexylmethyl)propanamide] were, in that order, more than 5000 nM and less than 500 nM.
On the same counts, the results for `Cc1ccccc1-c1ccc2nc(N)c(CCC(=O)NCc3ncco3)cc2c1` [Example 67, 3-(2-amino-6-o-tolylquinolin-3-yl)-N-(oxazol-2-ylmethyl)propanamide] are 1000 to 5000 nM and less than 500 nM.
Consider `Cc1ccc(CNC(=O)CCc2cc3cc(-c4ccccc4C)ccc3nc2N)c(F)c1` [Example 68, N-(2-fluoro-4-methylbenzyl)-3-(2-amino-6-o-tolylquinolin-3-yl)propanamide], for which the IC50 in experiment [1] (Homo sapiens, HEK293, 24 h) is more than 5000 nM; in experiment [2] (setting [3]), 1000 to 5000 nM.
On to `COC(Cc1cc2cc(-c3ccccc3C)ccc2nc1N)C(=O)NCC1CCCCC1` (centres unmarked) [Example 71, 3-(2-amino-6-o-tolylquinolin-3-yl)-N-(cyclohexylmethyl)-2-methoxypropanamide], for which the IC50 in experiment [1] (Homo sapiens, HEK293, 24 h) is 1000 to 5000 nM; in experiment [2] (setting [3]), less than 500 nM.
`CC(C)c1ccccc1-c1ccc2nc(N)c(CCC(=O)NCC3CCCCC3)cc2c1` [Example 72, 3-(2-amino-6-(2-isopropylphenyl)quinolin-3-yl)-N-(cyclohexylmethyl)propanamide]: the IC50 is more than 5000 nM in experiment [1] (Homo sapiens, HEK293, 24 h) and less than 500 nM in experiment [2] (setting [3]).
With `COc1ccccc1[C@@H](C)NC(=O)[C@H](C)Cc1cc2cc(-c3ccccc3C)ccc2nc1N` [Example 74, (R)-3-(2-amino-6-o-tolylquinolin-3-yl)-N-((R)-1-(2-methoxyphenyl)ethyl)-2-methylpropanamide], the IC50 in experiment [1] (Homo sapiens, HEK293, 24 h) is more than 5000 nM; in experiment [2] (setting [3]), 1000 to 5000 nM.
Regarding `COc1ccccc1[C@@H](C)NC(=O)[C@@H](C)Cc1cc2cc(-c3ccccc3C)ccc2nc1N` [Example 75, (S)-3-(2-amino-6-o-tolylquinolin-3-yl)-N-((R)-1-(2-methoxyphenyl)ethyl)-2-methylpropanamide], the IC50 in experiment [1] (Homo sapiens, HEK293, 24 h) was 1000 to 5000 nM; in experiment [2] (setting [3]), less than 500 nM.
In the case of `COc1ccccc1[C@@H](C)NC(=O)C(C)Cc1cc2cc(-c3ccccc3C)ccc2nc1N` (stereo partly drawn) [Example 76, 3-(2-amino-6-o-tolylquinolin-3-yl)-N-((R)-1-(2-methoxyphenyl)ethyl)-2-methylpropanamide], the IC50 is 1000 to 5000 nM in experiment [1] (Homo sapiens, HEK293, 24 h) and less than 500 nM in experiment [2] (setting [3]).
`Cc1ccccc1-c1ccc2nc(N)c(CC(C)C(=O)N[C@H](C)c3ccccc3OC(F)F)cc2c1` (stereo partly drawn) [Example 77, 3-(2-amino-6-o-tolylquinolin-3-yl)-N-((R)-1-(2-(difluoromethoxy)phenyl)ethyl)-2-methylpropanamide]: the IC50 in experiment [1] (Homo sapiens, HEK293, 24 h) was 1000 to 5000 nM; in experiment [2] (setting [3]) it was less than 500 nM.
As to `Cc1ccccc1-c1ccc2nc(N)c(CCC(=O)N[C@H](C)c3cccnc3)cc2c1` [Example 78, 3-(2-amino-6-o-tolylquinolin-3-yl)-N-((R)-1-(pyridin-3-yl)ethyl)propanamide], the IC50 in experiment [1] was more than 5000 nM; in experiment [2] (setting [3]) it was 1000 to 5000 nM.
On to `Cc1ccccc1-c1ccc2nc(N)c(C[C@@H](C)C(=O)NCc3cccnn3)cc2c1` [Example 81, (R)-3-(2-amino-6-o-tolylquinolin-3-yl)-2-methyl-N-(pyridazin-3-ylmethyl)propanamide], for which the IC50 is 500 to 1000 nM in experiment [1] (Homo sapiens, HEK293, 24 h); less than 500 nM in experiment [2] (setting [3]); less than 50 nM in experiment [2] (setting [4]).
Consider `CC(Cc1cc2cc(-c3ncccc3Cl)ccc2nc1N)C(=O)NC[C@@H]1CCCCO1` (stereo partly drawn) [Example 82, 3-(2-amino-6-(3-chloropyridin-2-yl)quinolin-3-yl)-2-methyl-N-(((S)-tetrahydro-2H-pyran-2-yl)methyl)propanamide], for which the IC50 in experiment [1] (Homo sapiens, HEK293, 24 h) lay in the range of 1000 to 5000 nM; in experiment [2] (setting [3]), 500 to 1000 nM.
Regarding `CC(Cc1cc2cc(-c3ncccc3Cl)ccc2nc1N)C(=O)NC[C@H]1CCCCO1` (stereo partly drawn) [Example 83, 3-(2-amino-6-(3-chloropyridin-2-yl)quinolin-3-yl)-2-methyl-N-(((R)-tetrahydro-2H-pyran-2-yl)methyl)propanamide], the IC50 is 1000 to 5000 nM in experiment [1] (Homo sapiens, HEK293, 24 h) and less than 500 nM in experiment [2] (setting [3]).
For the compound `Cc1ccccc1-c1ccc2nc(N)c(C[C@@H](C)C(=O)NCc3ccncn3)cc2c1` [Example 84, (R)-3-(2-amino-6-o-tolylquinolin-3-yl)-2-methyl-N-(pyrimidin-4-ylmethyl)propanamide], the IC50 is less than 500 nM in experiment [1] (Homo sapiens, HEK293, 24 h); less than 500 nM in experiment [2] (setting [3]); less than 50 nM in experiment [2] (setting [4]).
In the case of `Cc1ccccc1-c1ccc2nc(N)c(C[C@@H](C)C(=O)NCc3ncccn3)cc2c1` [Example 85, (R)-3-(2-amino-6-o-tolylquinolin-3-yl)-2-methyl-N-(pyrimidin-2-ylmethyl)propanamide], the IC50 is less than 500 nM in experiment [1] (Homo sapiens, HEK293, 24 h) and less than 500 nM in experiment [2] (setting [3]).
Regarding `Cc1cccnc1-c1ccc2nc(N)c(CC(C)C(=O)NC[C@H]3CCCOC3)cc2c1` (stereo partly drawn) [Example 86, 3-(2-amino-6-(3-methylpyridin-2-yl)quinolin-3-yl)-2-methyl-N-(((R)-tetrahydro-2H-pyran-3-yl)methyl)propanamide], the IC50 was less than 500 nM in experiment [1] (Homo sapiens, HEK293, 24 h) and less than 500 nM in experiment [2] (setting [3]).
Turning to `Cc1cccnc1-c1ccc2nc(N)c(CC(C)C(=O)NCC3CCOCC3)cc2c1` (centres unmarked) [Example 88, 3-(2-amino-6-(3-methylpyridin-2-yl)quinolin-3-yl)-2-methyl-N-((tetrahydro-2H-pyran-4-yl)methyl)propanamide], the IC50 is 500 to 1000 nM in experiment [1] (Homo sapiens, HEK293, 24 h) and less than 500 nM in experiment [2] (setting [3]).

Source of the values: patent US9296698B2, “Amino heteroaryl compounds as beta-secretase modulators and methods of use” (Amgen Inc., priority 2009, dated 2016).
